The subject of data set [1] is Botrytis cinerea. The data set can be described thus: In vitro test for the calculation of the ED50-value with microorganisms, Example Q4: Botrytis cinerea. The format is cell-based. The following applies: liquid culture, spore suspension, 4 to 7 days incubation, spectrometric measurement of mycelium growth.
Data set [2] relates to Fusarium culmorum. The data set is described as follows: In vitro test for the calculation of the ED50-value with microorganisms, Example Q4: Fusarium culmorum. The format is cell-based. The note with it: liquid culture, spore suspension, 4 to 7 days incubation, spectrometric measurement of mycelium growth. Here is the method:
• Solvent: Dimethyl sulfoxide • Culture medium: 14.6 g anhydrous D-glucose (VWR), 7.1 g Mycological Peptone (Oxoid), 1.4 g granulated Yeast Extract (Merck), QSP liter • Inoculum: Spore suspension
Fungicides were solubilized in DMSO and the solution used to prepare the required range of concentrations. The final concentration of DMSO used in the assay was ≤1%.
A spore suspension was prepared and diluted to the desired spore density.
Fungicides were evaluated for their ability to inhibit spore germination and mycelium growth in liquid culture assay. The compounds were added in the desired concentration to the culture medium with spores. After 4 to 7 days incubation, fungi-toxicity of compounds was determined by spectrometric measurement of mycelium growth. Inhibition of fungal growth was determined by comparing the absorbance values in wells containing the fungicides with the absorbance in control wells without fungicides.

Data set [3] deals with Pyrenophora teres. The data set can be described thus: In vivo preventive test on Pyrenophora teres (net blotch on barley), Examples D, Q2 and R4.
For data set [4], the system named is Botrytis cinerea. The data set is described as follows: In vivo preventive test on Botrytis cinerea (grey mould) on gherkin, Examples B, Q1 and R2.
Data set [5] deals with Septoria tritici. The data set is described as follows: In vivo preventive test on Septoria tritici (leaf spot on wheat), Examples E, Q3 and R5. The following applies: for Efficacy in %: Example Q3.
Data set [6] relates to Septoria tritici. The data set is described as follows: In vitro test for the calculation of the ED50-value with microorganisms, Example Q4: Septoria tritici. The format is cell-based. The note with it: liquid culture, spore suspension, 4 to 7 days incubation, spectrometric measurement of mycelium growth.
In data set [7] the test system is Leptosphaeria nodorum. The data set is described as follows: In vitro test for the calculation of the ED50-value with microorganisms, Example Q4: Leptosphaeria nodorum. The format is cell-based. The following applies: liquid culture, spore suspension, 4 to 7 days incubation, spectrometric measurement of mycelium growth.
The test system of data set [8] is Fusarium graminearum. The data set is described as follows: whole plant or invertebrate. The format is in vivo. The following applies: in Hordeum vulgare, 120 h, read-out: efficacy.
Data set [9] deals with Sphaerotheca fuliginea. The data set can be described thus: In vivo preventive test on Sphaerotheca fuliginea (powdery mildew on cucurbits), Examples F and R6. The following applies: Podosphaera fuliginea, 360 h; 500 ppm of active ingredient; gherkin, preventive spray, evaluated 15 days after inoculation; read-out: efficacy.
For data set [10], the system named is Puccinia recondita. The data set is described as follows: In vivo preventive test on Puccinia recondita (brown rust on wheat), Examples C and R3. The note with it: Puccinia recondita, 264 h, preventive spray, evaluated 11 days after inoculation.
Data set [11] concerns Blumeria graminis fsp. hordei. The data set is described as follows: In vivo preventive Blumeria test (barley), Example K. The following applies: 168 h, 500 ppm of active ingredient, preventive spray, evaluated 7 days after inoculation, read-out: efficacy. The source says:
After the spray coating has been dried, the plants are dusted with spores of Blumeria graminis fsp. hordei.

Data set [12] has as its system Phakopsora pachyrhizi. The data set is described as follows: In vivo preventive Phakopsora test (soybeans), Example I. The following applies: 168 h, 100 ppm of active ingredient, preventive spray, evaluated 7 days after inoculation, read-out: efficacy.
Data set [13] deals with Fusarium nivale (var. majus). The data set can be described thus: In vivo preventive Fusarium nivale (var. majus) test (wheat), Example O. The following applies: Microdochium nivale, 120 h, 500 ppm of active ingredient, preventive spray, evaluated 5 days after inoculation, read-out: efficacy. The text has this:
After the spray coating has been dried, the plants are slightly injured by using a sandblast and afterwards they are sprayed with a conidia suspension of Fusarium nivale (var. majus).

Data set [14] deals with Leptosphaeria nodorum. The data set is described as follows: In vivo preventive Leptosphaeria nodorum test (wheat), Example N. The note with it: Parastagonospora nodorum, 192 h, 500 ppm of active ingredient, preventive spray, evaluated 8 days after inoculation, read-out: efficacy. The text has this:
After the spray coating has been dried, the plants are sprayed with a spore suspension of Leptosphaeria nodorum.

The subject of data set [15] is Pyricularia oryzae. The data set can be described thus: whole plant or invertebrate. The format is in vivo. The following applies: 192 h, read-out: efficacy.
The test system of data set [16] is Venturia inaequalis. The data set can be described thus: In vivo preventive Venturia test (apples), Example J. The following applies: 240 h, read-out: efficacy.
Method: After the spray coating has dried on, the plants are inoculated with an aqueous conidia suspension of the causal agent of apple scab (Venturia inaequalis) and then remain for 1 day in an incubation cabinet at approximately 20° C. and a relative atmospheric humidity of 100%.
The plants are then placed in a greenhouse at approximately 21° C. and a relative atmospheric humidity of approximately 90%.
The test is evaluated 10 days after the inoculation.
Data set [17] has as its system Uromyces appendiculatus. The data set is described as follows: In vivo preventive test on Uromyces appendiculatus (bean rust), Examples G and R7. The note with it: 264 h, preventive spray, evaluated 11 days after inoculation.
The nature of data set [18]: Measurement of LogP values by HPLC on reversed phase columns (EEC directive 79/831 Annex V.A8). The following applies: method [a]: LC-UV, acidic range, 0.1% formic acid in water and acetonitrile as eluent; Table 1. The format is physicochemical. How it is done: Measurement of Log P values was performed as outlined above.
Data set [19] relates to Alternaria solani. The data set can be described thus: In vivo preventive Alternaria test (tomatoes), Example H. The following applies: 72 h, 100 ppm of active ingredient, preventive spray, evaluated 3 days after inoculation, read-out: efficacy.
Data set [20] concerns Fusarium culmorum. The data set is described as follows: In vivo preventive Fusarium culmorum test (wheat), Example L. The following applies: 120 h, 500 ppm of active ingredient, preventive spray, evaluated 5 days after inoculation, read-out: efficacy. Here is the method:
After the spray coating has been dried, the plants are slightly injured by using a sandblast and afterwards they are sprayed with a conidia suspension of Fusarium culmorum.
The test is evaluated 5 days after the inoculation.

For data set [21], the system named is Alternaria brassicae. The data set can be described thus: In vivo preventive test on Alternaria brassicae (leaf spot on radish), Examples A and R1. The following applies: Alternaria brassicae, 144 h, 500 ppm of active ingredient, preventive spray, evaluated 6 days after inoculation, read-out: efficacy.
[22] abbreviates: 500 ppm of active ingredient, wheat, read-out: efficacy.
[23] abbreviates: 500 ppm of active ingredient, bean, read-out: efficacy.
The mark [24] stands for this setting: Pyrenophora teres, 336 h, 500 ppm of active ingredient, preventive spray, evaluated 14 days after inoculation, read-out: efficacy.
Where [25] appears, read: Botrytis cinerea, 500 ppm of active ingredient, preventive spray, evaluated 4 to 5 days after inoculation, read-out: efficacy.
The mark [26] stands for this setting: Zymoseptoria tritici, 576 h, 500 ppm of active ingredient, wheat, preventive spray, evaluated 24 days after inoculation, read-out: efficacy.

Where two headings read alike, the source gives them in different places.

By chromatographic logP is commonly meant a lipophilicity value derived from retention on a column.

Take `OC(Cc1ccc(Cl)cc1F)(Cn1ccnc1)C1(Cl)CC1` (racemic) [reference compound]: the “Botrytis cinerea ED50 value in ppm” value in data set [1] is listed as 0.53 ppm. The “Fusarium culmorum ED50 value in ppm” value in data set [2] is reported as 0.04 ppm. Moreover, the Efficacy in % in data set [3] (Example Q2, rate of application 100 ppm) came to 0%; in [3] (Example Q2, rate of application 500 ppm) it was 0%; in data set [4] (Example Q1, rate of application 100 ppm), 70%; in data set [4] (Example Q1, rate of application 500 ppm), 100%; in data set [5] (rate of application 100 ppm, wheat) it was 0%; in data set [5] (rate of application 500 ppm, wheat), 100%. For the same compound, the “Septoria tritici ED50 value in ppm” value in data set [6] is given as 0.02 ppm. The “Leptosphaeria nodorum ED50 value in ppm” value in data set [7] is recorded as 0.04 ppm.

On to `N#Cc1cncn1CC(O)(Cc1ccccc1Cl)C1(Cl)CC1` (stereo not drawn) [Example I-06, 1-[2-(1-chlorocyclopropyl)-3-(2-chlorophenyl)-2-hydroxypropyl]-1H-imidazole-5-carbonitrile], for which the pest or weed control at 500 ppm in data set [8] is 90 to 100%; in data set [9], 90 to 100%; in data set [10] (setting [22]) it was 90 to 100%; in [10] (Example R3, wheat, 500 ppm, read-out: Efficacy in %), 94%; in data set [11] it was 90 to 100%; in data set [13] it was 90 to 100%. The pest or weed control at 500 ppm in data set [14] was 90 to 100%; in data set [15] it was 90 to 100%; in [17] (setting [23]), 90 to 100%; in data set [17] (Example R7, bean, 500 ppm, read-out: Efficacy in %) it was 100%; in data set [3] (setting [24]) it was 90 to 100%; in data set [3] (Pyrenophora teres, 336 h, Example R4, rate of application 500 ppm, read-out: Efficacy in %), 93%. Moreover, the pest or weed control at 500 ppm in data set [4] (setting [25]) is 90 to 100%; in [4] (Botrytis cinerea, Example R2, rate of application 500 ppm, read-out: Efficacy in %), 97%; in data set [5] (setting [26]), 90 to 100%; in data set [5] (Zymoseptoria tritici, 576 h, Example R5, wheat, preventive spray, 500 ppm, evaluated 24 days after inoculation, read-out: Efficacy in %), 100%; in data set [20] it was 90 to 100%. Besides, the pest or weed control at 100 ppm in data set [10] (Example R3, wheat, 100 ppm, read-out: Efficacy in %) was 89%; in data set [12] it was 90 to 100%; in [16], 80 to 89%; in [17] (Example R7, bean, 100 ppm, read-out: Efficacy in %) it was 100%; in data set [3] (Pyrenophora teres, 336 h, Example R4, rate of application 100 ppm, read-out: Efficacy in %) it was 86%; in data set [4] (Botrytis cinerea, Example R2, rate of application 100 ppm, read-out: Efficacy in %), 80%. The pest or weed control at 100 ppm was 90 to 100% in [19] and 98% in data set [5] (Zymoseptoria tritici, 576 h, Example R5, wheat, preventive spray, 100 ppm, evaluated 24 days after inoculation, read-out: Efficacy in %). Besides, in data set [18], the chromatographic logP is 2.92.

`OC(Cc1ccccc1Cl)(Cn1cncc1F)C1(Cl)CC1` (stereo not drawn) [Example I-16]: the pest or weed control at 500 ppm in data set [8] was in the range of 80 to 89%; in [21] it was 90 to 100%; in data set [9] it was 90 to 100%; in [10] (setting [22]), 80 to 89%; in [11], 90 to 100%; in data set [13], 90 to 100%. The pest or weed control at 500 ppm in data set [14], in [15], in data set [17] (setting [23]), in data set [3] (setting [24]), in data set [4] (setting [25]) and in data set [5] (setting [26]) was 90 to 100% in each case. Besides, the pest or weed control at 500 ppm in data set [20] is 90 to 100%. Also, the pest or weed control at 100 ppm in [12], in data set [16] and in [19] was 90 to 100% each time. Moreover, in [18], the chromatographic logP was determined as 1.94.

On to `OC(Cc1cc(F)ncc1Cl)(Cn1cncc1Cl)C1(Cl)CC1` (stereo not drawn) [Example I-18], for which the pest or weed control at 500 ppm lay within 90 to 100% in data set [8]; 70 to 79% in data set [21]; 90 to 100% in data set [9]; 90 to 100% in data set [10] (setting [22]); 90 to 100% in [11]; 90 to 100% in data set [13]. For the same compound, the pest or weed control at 500 ppm in [14], in data set [15], in [17] (setting [23]), in data set [3] (setting [24]), in data set [4] (setting [25]) and in data set [5] (setting [26]) was 90 to 100% throughout. Further, the pest or weed control at 500 ppm in data set [20] was 80 to 89%. Besides, the pest or weed control at 100 ppm in data set [12], in [16] and in data set [19] was 90 to 100% in each case. This compound also yielded a chromatographic logP in data set [18] of 2.01.

Regarding `N#Cc1cncn1CC(O)(Cc1ccc(F)cc1)C1(Cl)CC1` (stereo not drawn) [Example I-157], the pest or weed control at 500 ppm in data set [8] lay within 90 to 100%; in data set [9] it was 90 to 100%; in data set [10] (setting [22]) it was 90 to 100%; in [11], 90 to 100%; in [13], 80 to 89%; in data set [14], 80 to 89%. In addition, the pest or weed control at 500 ppm in [15], in data set [17] (setting [23]), in [3] (setting [24]), in data set [4] (setting [25]), in [5] (setting [26]) and in data set [20] was 90 to 100% throughout. The pest or weed control at 100 ppm in data set [12] lay in the range of 90 to 100%; in data set [16], 90 to 100%; in data set [19], 80 to 89%. This compound also showed a chromatographic logP in [18] of 2.75.

`N#Cc1cncn1CC(O)(Cc1ccccc1)C1(Cl)CC1` (stereo not drawn) [Example I-65]: the pest or weed control at 500 ppm is 90 to 100% in [8]; 90 to 100% in data set [9]; 90 to 100% in data set [10] (setting [22]); 90 to 100% in data set [11]; 90 to 100% in data set [13]; 80 to 89% in data set [14]. The pest or weed control at 500 ppm fell in the range of 90 to 100% in data set [15]; 90 to 100% in data set [17] (setting [23]); 90 to 100% in [3] (setting [24]); 90 to 100% in data set [4] (setting [25]); 80 to 89% in data set [5] (setting [26]); 90 to 100% in [20]. For the same compound, the pest or weed control at 100 ppm is 90 to 100% in data set [12], 80 to 89% in data set [16] and 90 to 100% in [19]. This compound returned a chromatographic logP in [18] of 2.64.

The values are drawn from US10231453B2, “5-substituted imidazole derivatives” (BAYER CROPSCIENCE AKTIENGESELLSCHAFT, priority 2015, dated 2019).
